Activity calls are given as the source filed them. How the calls were made is not given here.
How the values were obtained:
[1] = system: WST cytotoxicity, absorbance 620 nm; assay: cell viability loss, WST reduction – absorbance, cytotoxicity control for NOD2-RIPK2 interaction inhibitor project, late-stage follow-up (AID 652167)
[2] = as above; settings: WST cytotoxicity, absorbance 620 nm; WST absorbance; at 10 µM; stronger effect = lower value

O=S(=O)(c1ccc(F)cc1)N1CCCCCC1
IC50 [1]: > 10 µM (inactive) | absorbance [2]: 1

Cc1nc([N+](=O)[O-])c(Br)n1Cc1ccccc1
IC50 [1]: > 10 µM (inactive) | absorbance [2]: 0.991

Cc1ccc(C(C[N+](=O)[O-])n2nc(C)cc2C)cc1 (configuration not stated)
IC50 [1]: > 10 µM (inactive) | absorbance [2]: 0.968

O=S(=O)(c1ccccc1)N1CCCCCC1
IC50 [1]: > 10 µM (inactive) | absorbance [2]: 0.969

Cc1ncc([N+](=O)[O-])n1Cc1ccc(Cl)c(Cl)c1
IC50 [1]: > 10 µM (inactive) | absorbance [2]: 1.01

O=[N+]([O-])c1cccc(S(=O)(=O)N2CCCCCC2)c1
IC50 [1]: > 10 µM (inactive) | absorbance [2]: 0.999

COc1ccc(C(C[N+](=O)[O-])n2nc(C)cc2C)cc1 (configuration not stated)
IC50 [1]: > 10 µM (inactive) | absorbance [2]: 0.973

Cc1cc(S(=O)(=O)N2CCCCCC2)ccc1F
IC50 [1]: > 10 µM (inactive) | absorbance [2]: 1

Cc1ccc(S(=O)(=O)N2CCCCCC2)cc1[N+](=O)[O-]
IC50 [1]: > 10 µM (inactive) | absorbance [2]: 0.99

O=[N+]([O-])c1cc(S(=O)(=O)N2CCCCCC2)ccc1F
IC50 [1]: > 10 µM (inactive) | absorbance [2]: 0.991

Cc1nc([N+](=O)[O-])c(Br)n1Cc1ccc(Cl)c(Cl)c1
IC50 [1]: > 10 µM (inactive) | absorbance [2]: 0.974

From PubChem BioAssay AID652167 (The Scripps Research Institute Molecular Screening Center, 2013)
